Source: PubChem BioAssay (NCI)
Values joined by “and” are separate entries in the source; they are usually repeats but may differ in a detail not shown here. Equal entries are not always repeated.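 Grown in 96-well plates, cells were treated for 48 hours with each compound at five concentrations. Insufficient inhibition: endpoint recorded as highest concentration tested. TGI marks complete inhibition of growth.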

What was measured:
Assay in all cases: NCI-60 cell line screen, 48 h
786-0 renal = system: 786-0 renal
A549 NSCLC = system: A549 NSCLC
HCT-15 colon = system: HCT-15 colon
K-562 leukemia = system: K-562 leukemia
KM12 colon = system: KM12 colon
MALME-3M melanoma = system: MALME-3M melanoma
NCI-H23 lung = system: NCI-H23 lung
BT-549 breast = system: BT-549 breast
HS 578T breast = system: HS 578T breast
MDA-MB-231 breast = system: MDA-MB-231 breast
MDA-MB-435 = system: MDA-MB-435

SMILES | TGI (786-0 renal) | TGI (A549 NSCLC) | TGI (HCT-15 colon) | TGI (K-562 leukemia) | TGI (KM12 colon) | TGI (MALME-3M melanoma) | TGI (NCI-H23 lung) | TGI (BT-549 breast) [µM] | TGI (HS 578T breast) [µM] | TGI (MDA-MB-231 breast) [µM] | TGI (MDA-MB-435) [µM]
CC(C)(CN1CCCCC1)C(=O)CC(SCCS(=O)(=O)O)c1ccc(Br)cc1 (centres undefined) | 2.71 µM | 4.78 µM | 6.91 µM | 8.63 µM | 5.36 µM | 3.38 µM | 5.9 µM | – | – | – | –
NC1=NS(=O)(=O)N=C(N)C1=Cc1ccc([N+](=O)[O-])o1 | 30.8 µM | > 100 µM | 30.7 µM | 19.5 µM | 34.5 µM | 29.7 µM | 31.4 µM | – | – | – | –
O=C1/C(=C/c2cccc(Oc3ccccc3)c2)N=C(c2ccccc2)N1c1nc2ccc(Sc3ccccc3)cc2[nH]1 | > 100 µM | > 100 µM | > 100 µM | > 100 µM | > 100 µM | > 100 µM | > 100 µM | 55 | > 100 | 49.9 | 33.1
O=C1c2cc([N+](=O)[O-])ccc2NC2C(O)c3ccccc3N12 (centres undefined) | 64.4 µM | > 100 µM | > 100 µM | 87.8 µM | > 100 µM | – | 72.5 µM | 61.4 | 74.3 | > 100 | > 100
COc1cc(C(=O)Nc2nnc(S(N)(=O)=O)s2)cc(OC)c1OC | > 100 µM | > 100 µM | > 100 µM | > 100 µM | > 100 µM | > 100 µM | > 100 µM | > 100 | > 100 | > 100 | > 100
O=c1[nH]c(=O)n(C2CC(O)C(CO)O2)cc1C#Cc1ccc(C(F)(F)F)cc1 (centres undefined) | > 100 µM | > 100 µM | > 100 µM | > 100 µM | > 100 µM | > 100 µM | > 100 µM | – | – | – | –
O=c1oc2ccccc2cc1-c1nc2ccc([N+](=O)[O-])cc2o1 | > 100 µM | > 100 µM | > 100 µM | > 100 µM | > 100 µM | > 100 µM | > 100 µM | > 100 | > 100 | > 100 | > 100
O=C(Cc1nc2ccc(C(=O)c3ccccc3)cc2[nH]c1=O)C(=O)Nc1ccccc1[N+](=O)[O-] | > 100 µM | > 100 µM | > 100 µM | > 100 µM | > 100 µM | > 100 µM | > 100 µM | > 100 | > 100 | > 100 | > 100
C#CC(C)(C)Oc1cc(OC)c2c(=O)c3ccccc3n(C)c2c1 | > 100 µM | 74.1 µM | 44.5 µM | 55.5 µM | 37.8 µM | – | – | – | 60.6 | 56.1 | 26.9
Cn1c(N)c(/C=N/NC(=O)CC#N)c(=O)n(C)c1=O | > 100 µM | > 100 µM | > 100 µM | – | > 100 µM | > 100 µM | – | > 100 | > 100 | > 100 | > 100
O=C1CSC2(CC(/C=C/C=C/c3ccccc3)=NN2c2cccc(S(=O)(=O)O)c2)N1c1nc2ccccc2s1 (centres undefined) | > 100 µM | > 100 µM | > 100 µM | > 100 µM | > 100 µM | – | > 100 µM | > 100 | – | > 100 | 55.6
O=C1CCC2(CCC(=O)NC2=O)C(=O)N1 | > 100 µM | > 100 µM | > 100 µM | > 100 µM | > 100 µM | > 100 µM | > 100 µM | – | – | – | –
CC1(C)CC(=O)C(/C=N/c2nc(-c3ccc(Br)cc3)cs2)=C(O)C1 | > 100 µM | > 100 µM | 49.7 µM | – | > 100 µM | – | 83.9 µM | 37.8 | – | > 100 | 76.5
O=C1CCC2(CC1)Cc1ccccc1C2O (centres undefined) | > 100 µM | > 100 µM | > 100 µM | > 100 µM | > 100 µM | > 100 µM | > 100 µM | > 100 | > 100 | > 100 | –
Cc1cnc(Cl)nc1C(C#N)c1nc2ccccc2n1C (centres undefined) | > 100 µM | > 100 µM | > 100 µM | – | > 100 µM | > 100 µM | > 100 µM | > 100 | – | > 100 | > 100
CCOC(=O)C1C/C(C)=C(/C)SCCCS1 (centres undefined) | > 100 µM | > 100 µM | > 100 µM | > 100 µM | > 100 µM | > 100 µM | > 100 µM | – | > 100 | > 100 | > 100
CCCCCCCCCCCCC(=O)NCC(=O)NC(Cc1ccccc1)C(=O)Oc1ccc([N+](=O)[O-])cc1 (centres undefined) | > 100 µM | > 100 µM | > 100 µM | – | > 100 µM | – | > 100 µM | > 100 | > 100 | > 100 | > 100
c1ccc(C2=NN3CN(N2)c2ccccc2OCCCOc2ccccc23)cc1 | > 100 µM | > 100 µM | > 100 µM | > 100 µM | > 100 µM | > 100 µM | > 100 µM | – | – | – | –
CC(=O)Oc1ccc2cc(Oc3ccc(Cl)cc3)c(=O)oc2c1 | > 100 µM | 94 µM | > 100 µM | – | > 100 µM | > 100 µM | > 100 µM | 83.8 | > 100 | > 100 | –
CC1(C)OC[C@@H](/C=C\CCO[Si](c2ccccc2)(c2ccccc2)C(C)(C)C)N1C(=O)c1ccccc1 | 28 µM | 23.2 µM | > 100 µM | 52.1 µM | 34.6 µM | – | 96.7 µM | > 100 | 55.1 | 38.4 | > 100
CCCCCCCCCCCCOC1C(COCCN2CCCC2)OC2OC(C)(C)OC21 (centres undefined) | 3.08 µM | 16.1 µM | 3.17 µM | 2.7 µM | – | 3.35 µM | 3.48 µM | 3.22 | 3.51 | 2.92 | 3.14
Cc1nc2c(n1Cc1ccc(Cl)cc1)C(=O)c1ccccc1C2=O | > 75 µM | > 75 µM | > 75 µM | > 75 µM | > 75 µM | > 75 µM | > 75 µM | – | – | – | –
Brc1ccc(N2C[N+](c3ccc(Br)cc3)=NC(c3ccccc3)=N2)cc1 | 29.5 µM and > 100 µM | 33.6 µM and > 100 µM | 33.5 µM and > 100 µM | 32.8 µM and > 100 µM | 28.1 µM and > 100 µM | 31.2 µM and > 100 µM | 31.7 µM and > 100 µM | – | – | – | –
